Source: US11241422B2, “Methods for treatment of Fabry disease” (Amicus Therapeutics, Inc., priority 2006, dated 2022)
“And” between values parts separate entries of the source, which are not always exact repeats. Identical values can stand only once.

Biological target: T1, α-GAL (Homo sapiens, UniProt P06280)
T1 sequence (P06280 32-429): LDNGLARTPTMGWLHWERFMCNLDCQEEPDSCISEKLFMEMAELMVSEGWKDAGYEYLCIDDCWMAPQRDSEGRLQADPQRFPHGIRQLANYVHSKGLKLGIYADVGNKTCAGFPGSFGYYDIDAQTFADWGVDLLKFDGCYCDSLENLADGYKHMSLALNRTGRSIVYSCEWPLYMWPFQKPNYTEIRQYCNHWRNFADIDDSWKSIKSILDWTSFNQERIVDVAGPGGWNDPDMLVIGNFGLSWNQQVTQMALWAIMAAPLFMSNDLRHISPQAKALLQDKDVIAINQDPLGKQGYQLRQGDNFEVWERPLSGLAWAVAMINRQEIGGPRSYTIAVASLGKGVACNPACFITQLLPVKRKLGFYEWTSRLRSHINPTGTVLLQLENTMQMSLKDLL
Assay: T cell-based α-GAL enhancement assay, T cells from normal individuals cultured with DGJ
Set-up: endogenous in cells; host or cells: T cell cultures from blood of normal control individuals
Details: for Activity (% Normal) (+DGJ): 20 μM DGJ; for Enhancement ratio: +DGJ vs −DGJ
Description: 2. WBC Separation: • Patient blood was drawn into an 8 mL CPT tube, which has been stored at 18-25° C. • immediately after collecting blood, it was mixed by inverting the tube 8-10 times. • The tube was centrifuged at room temperature (18-25° C.) for 30 minutes at 1800× g using a tabletop centrifuge equipped with swinging buckets. Universal precautions for handling blood specimens were taken, including the use of a closed canister type bucket for centrifugation. • Following centrifugation, several layers of the blood composition become distinguishable which represented separation of the red blood cells from the plasma and white cells.
3. Washing of WBC's • Half of the plasma layer was aspirated by vacuum and discarded without disturbing the white cell layer. All of the remaining fluid, including the cell layer, was transferred with a Pasteur pipette to a 15 mL conical screw-cap Falcon centrifuge tube. • PBS was added to bring the volume up to 14 mL and the tube was mixed by inversion. • The tube was centrifuged at room temperature for 20-30 minutes at 1300 rpm (approximately 320× g). • Immediately after centrifugation, as much supernatant as possible was aspirated by vacuum and discarded without disturbing the cell pellet.
5. Optional: Freezing WBC Pellet • The cell pellet was mixed in the remaining liquid by tapping a finger against the bottom of the tube. • 0.5 to 1 mL of PBS was added to the re-suspended cells and one half of the pellet was transferred (using a sterile tip on a micropipette) to a labeled 1.8 mL cryovial. • The cryovial was centrifuged at room temperature for 5 minutes at 5000 rpm (approximately 2250 g) in a microcentrifuge. • All of the supernatant liquid was discarded using a Pasteur pipette without disturbing the cell pellet. • 0.5 to 1 ml of RPMI 1640 containing 10% FBS and 5% DMSO was then added to the tube and mixed a pipette and frozen overnight at −80 C prior to transferring to a liquid nitrogen cell storage freezer. B. Establishment of T-Cell Cultures from Blood Specimens • 1. The washed cells were re-suspended in 3.0 ml of RPMI 1640 medium with 10% Cosmic Calf Serum (CCS, Hyclone Laboratories, Logan, Utah), about 25 ng/ml IL-2 (PreProTECH, Rocky Hill, N.J.) and the manufacturer's recommended concentration of PHA (Life Technology, Gaithersburg, Md.). The cells were then transferred to an upright an upright […] culture flask and incubated for 3-4 days at 37° C., 5% CO2. • 2. The cell culture was diluted to 5 ml with growth medium (RPMI-1640, 10% FBS, 25 ng/ml IL-2). The cell concentration was then adjusted to about 5×10^5 cells/ml in the flask. • 3. The growth of the cells was monitored daily. Cells were maintained between 5×10^5 and 1.5×10^6 cells in an upright flask. […] Senescence of the culture will be apparent by a dramatic reduction in growth rate. Culture time may possibly be extended by re-stimulation with PHA. • 4. Optional-Freezing T-lymphocytes: T-lymphocytes may be frozen at 3×10^6 cells/vial using RPMI1640 medium containing 20% FCS and 7.5% DMSO. On day 5, 6, or 7 cryopreserve as many vials as possible at 3×10^6 cells/vial. This is sufficient to thaw 5 mLs of culture at 5×10^5 viable cells/ml. When establishing T-cell cultures, the following should be noted. • Fresh blood specimens should be collected in heparinized tubes (or tubes containing an appropriate anti-coagulant) and used the same day. ACD tubes should be used if specimens cannot be processed within 24 hours. (Clin Chem 1988 January; 34(1):110-3; Clin Diagn Lab Immunol. 1998 November; 5(6):804-7.). • Eight-10 mLs of blood is usually sufficient to establish 20 million cells by day 5. • T lymphocytes are the specific targets of the HIV virus. Use extreme care if the HIV status of the patient is unknown. • Each new lot of IL-2 should be tested to determine the optimal concentration.

[1] = T cells of single normal individuals (specimens 58-81)

dosage effect on α-GAL activity (T cells from normal controls, DGJ between 2 nM and 20 μM): α-GAL activity increased | Enhancement ratio (T cells, All NL (M or F)): 1.3 | Activity (% Normal) (+DGJ) (T cells, All NL (normal individuals, M or F)): 128 % Normal | Activity (% Normal) (+DGJ) (T cells, All NL Female): 117 % Normal | Enhancement ratio (T cells, All NL Female): 1.4 | Activity (% Normal) (+DGJ) (T cells, All NL Male): 124 % Normal | Enhancement ratio (T cells, All NL Male): 1.2
SMILES: OC[C@H]1NC[C@H](O)[C@@H](O)[C@H]1O [DGJ, 1-deoxygalactonojirimycin]
normal α-GAL activity (T cells from normal controls, 200 μM DGJ (inhibition)): approximately 40 % of the average of untreated normal controls | Activity (% Normal) (+DGJ) [1]: 161 % Normal and 100 % Normal and 120 % Normal and 104 % Normal and 150 % Normal and 165 % Normal and 145 % Normal and 97 % Normal and 141 % Normal and 198 % Normal and 315 % Normal and 140 % Normal and 138 % Normal and 131 % Normal and 99 % Normal and 126 % Normal and 108 % Normal and 116 % Normal and 118 % Normal and 107 % Normal and 117 % Normal and 111 % Normal | Enhancement ratio [1]: 1.3 (6×) and 1.1 (3×) and 1.2 (5×) and 1.5 (2×) and 1.4 (4×) and 1.0 (2×) and 1.8 and 0.8
